Reference: PubChem BioAssay AID262 (DTP/NCI, 2004)
Several values for one entry are separate records, joined by “and”; a condition that tells them apart may be missing. Identical values can stand only once. Starred links: 1 amine or outer side, 2 acyl side, 3 side chain; linkers in the order of their positions; H or OH if unused. Positions of bridges follow the written chain, without caps; N, C: chain ends. Non-standard residues stand in square brackets, D forms with d. Residues, ends and D or L forms follow the SMILES beside them. Chains are numbered I, II in the order given. Actinocin(9to1) = Cc1c2oc3c(C)ccc(C(=O)[*:1])c3nc-2c(C(=O)[*:2])c(N)c1=O; aThr = C[C@H](O)[C@H](N)C(=O)O; NMeV = CN[C@H](C(=O)O)C(C)C; Sar = CNCC(=O)O

System: LX-1 lung xenograft sc, nude mice, tumor weight
Assay: NCI In Vivo Anticancer Drug Screen. Data for tumor model Human Lung LX-1 Xenograft (subcutaneous) in NU/NU Swiss (nude) mice
Conditions: endpoint: optimum tumor weight change, schedule: Q04DX003 (ip), higher = larger tumour
Description: The antitumor activity of compounds was measured in mice bearing transplantable tumors. Survival or tumor size were measured and the results are expressed as the measurement made in the treated group (T) divided by the measurement made in the vehicle treated control group (C). The tumor model used in this assay is Human Lung LX-1 Xenograft (subcutaneous) in NU/NU Swiss (nude) mice

[1] = dose: 25.0 mg/kg/injection, vehicle: saline with Tween-80
[2] = dose: 50.0 mg/kg/injection, vehicle: saline with Tween-80
[3] = dose: 100.0 mg/kg/injection, vehicle: saline with Tween-80
[4] = dose: 100.0 mg/kg/injection, vehicle: suspension in saline
[5] = dose: 200.0 mg/kg/injection, vehicle: suspension in saline
[6] = dose: 400.0 mg/kg/injection, vehicle: suspension in saline
[7] = dose: 100.0 mg/kg/injection, vehicle: saline
[8] = dose: 50.0 mg/kg/injection, vehicle: water
[9] = dose: 100.0 mg/kg/injection, vehicle: water
[10] = dose: 200.0 mg/kg/injection, vehicle: saline with Tween-80
[11] = dose: 400.0 mg/kg/injection, vehicle: saline with Tween-80
[12] = dose: 800.0 mg/kg/injection, vehicle: saline with Tween-80
[13] = dose: 12.5 mg/kg/injection, vehicle: saline with Tween-80
[14] = dose: 50.0 mg/kg/injection, vehicle: saline
[15] = dose: 0.75 mg/kg/injection, vehicle: saline
[16] = dose: 1.5 mg/kg/injection, vehicle: saline
[17] = dose: 25.0 mg/kg/injection, vehicle: Klucel (hydroxypropylcellulose) (HPC)
[18] = dose: 50.0 mg/kg/injection, vehicle: Klucel (hydroxypropylcellulose) (HPC)

## CCN(CC)CCCC(C)Nc1c2ccc(Cl)cc2nc2ccc(OC)cc12 (stereo unspecified)
[1]
  T/C: 119 % of control
[2]
  T/C: 99 % of control
[3]
  T/C: 108 % of control

## O=C(NO)c1ccccc1
[4]
  T/C: 95 % of control
[5]
  T/C: 68 % of control and 84 % of control
[6]
  T/C: 55 % of control and 80 % of control
dose: 800.0 mg/kg/injection, vehicle: suspension in saline
  T/C: 85 % of control

## CN(N=O)C(=O)N[C@@H](C=O)[C@@H](O)[C@H](O)[C@H](O)CO
[7]
  T/C: 150 % of control
dose: 200.0 mg/kg/injection, vehicle: saline
  T/C: 64 % of control

## ClCC[N+]12CC[N+](CCCl)(CC1)C2
[8]
  T/C: 81 % of control
[3]
  T/C: 103 % of control
[9]
  T/C: 106 % of control
[10]
  T/C: 72 % of control
dose: 200.0 mg/kg/injection, vehicle: water
  T/C: 59 % of control
[11]
  T/C: 74 % of control
dose: 400.0 mg/kg/injection, vehicle: water
  T/C: 48 % of control

## Cn1cnc([N+](=O)[O-])c1[Se]c1nc(N)nc2nc[nH]c12
dose: 25.0 mg/kg/injection, vehicle: water
  T/C: 77 % of control
[8]
  T/C: 54 % of control
[9]
  T/C: 49 % of control

## O=C(NC1CCCCC1)OCc1c(COC(=O)NC2CCCCC2)c(-c2ccc(Cl)c(Cl)c2)n2c1CCC2
[10]
  T/C: 89 % of control
[11]
  T/C: 88 % of control
[12]
  T/C: 73 % of control

## COc1cccc2c1C(=O)c1c(O)c3c(c(O)c1C2=O)C[C@@](O)(C(=O)CO)C[C@@H]3OC1CC(N)C(O)C(C)O1 (stereo partly specified)
dose: 4.0 mg/kg/injection, vehicle: water
  T/C: 81 % of control

## O=c1[nH]cnc2n[nH]nc12
dose: 200.0 mg/kg/injection, vehicle: Klucel (hydroxypropylcellulose) (HPC)
  T/C: 111 % of control
dose: 400.0 mg/kg/injection, vehicle: Klucel (hydroxypropylcellulose) (HPC)
  T/C: 59 % of control
dose: 800.0 mg/kg/injection, vehicle: Klucel (hydroxypropylcellulose) (HPC)
  T/C: 94 % of control

## O=Cc1ccc(O)c(O)c1
[13]
  T/C: 91 % of control
[1]
  T/C: 107 % of control
[2]
  T/C: 114 % of control

## COc1cc2c[n+](C)c3c4cc5c(cc4ccc3c2cc1OC)OCO5
dose: 20.0 mg/kg/injection, vehicle: saline with Tween-80
  T/C: 105 % of control
dose: 40.0 mg/kg/injection, vehicle: saline with Tween-80
  T/C: 34 % of control
dose: 80.0 mg/kg/injection, vehicle: saline with Tween-80
  T/C: 54 % of control

## O=C/C(Cl)=C(/Cl)C(=O)O
dose: 3.13 mg/kg/injection, vehicle: saline with Tween-80
  T/C: 112 % of control
dose: 6.25 mg/kg/injection, vehicle: saline with Tween-80
  T/C: 84 % of control
[13]
  T/C: 71 % of control

## CNC(=O)ON(C(C)=O)C(=O)NC
dose: 12.5 mg/kg/injection, vehicle: saline
  T/C: 94 % of control
dose: 25.0 mg/kg/injection, vehicle: saline
  T/C: 103 % of control
[14]
  T/C: 71 % of control
[7]
  T/C: 60 % of control

## N=C(N)Sc1ccccn1
[14]
  T/C: 182 % of control

## CC[C@](O)(C(=O)O)c1cc2n(c(=O)c1CO)Cc1cc3ccccc3nc1-2
dose: 1.0 mg/kg/injection, vehicle: saline
  T/C: 40 % of control
dose: 4.0 mg/kg/injection, vehicle: saline
  T/C: 26 % of control and 40 % of control
dose: 8.0 mg/kg/injection, vehicle: saline
  T/C: 32 % of control and 35 % of control
dose: 16.0 mg/kg/injection, vehicle: saline
  T/C: 29 % of control

## COC1C(O)CC(OC2CC(OC3CC(O[C@@H]4C(=O)c5c(cc6cc(OC7CC(OC8CC(O)C(O)C(C)O8)C(O)C(C)O7)c(C)c(O)c6c5O)C[C@H]4[C@H](OC)C(=O)[C@@H](O)[C@@H](C)O)OC(C)C3O)OC(C)C2O)OC1C (stereo partly specified)
[15]
  T/C: 104 % of control
[16]
  T/C: 53 % of control and 62 % of control

## C[n+]1c(-c2cccc3ccccc23)c2cc(N)ccc2c2ccccc21
[15]
  T/C: 61 % of control
[16]
  T/C: 57 % of control

## O=C1c2c(O)ccc(O)c2C(=O)c2c(NCCNCCO)ccc(NCCNCCO)c21
dose: 0.31 mg/kg/injection, vehicle: water
  T/C: 52 % of control

## CN1N=C(N)c2cn(C3OC(COP(=O)(O)O)C(O)C3O)c3ncnc1c23 (stereo unspecified)
[8]
  T/C: 86 % of control

## C=CC(=O)N1CN(C(=O)C=C)CN(C(=O)C=C)C1
dose: 1.5 mg/kg/injection, vehicle: saline with Tween-80
  T/C: 89 % of control
dose: 3.0 mg/kg/injection, vehicle: saline with Tween-80
  T/C: 62 % of control
dose: 6.0 mg/kg/injection, vehicle: saline with Tween-80
  T/C: 80 % of control

## OC(CBr)C(O)C(O)C(O)CBr (stereo unspecified)
[17]
  T/C: 98 % of control
[18]
  T/C: 66 % of control

## CCOC(=O)C1C2OC(=O)C(C(=O)C2CN(CCCl)CCCl)C1C1CC=C(CC2=CCC(C3C4C(=O)OC(C(CN(CCCl)CCCl)C4=O)C3C(=O)OCC)CC2)CC1 (stereo unspecified)
[17]
  T/C: 58 % of control
[18]
  T/C: 64 % of control
dose: 100.0 mg/kg/injection, vehicle: Klucel (hydroxypropylcellulose) (HPC)
  T/C: 55 % of control

## O=C(O)CP(=O)(O)O
dose: 400.0 mg/kg/injection, vehicle: saline
  T/C: 98 % of control
dose: 800.0 mg/kg/injection, vehicle: saline
  T/C: 90 % of control
dose: 1600.0 mg/kg/injection, vehicle: saline
  T/C: 75 % of control

## CC1CCC(NC(=O)N(CCCl)N=O)CC1 (stereo unspecified)
dose: 5.0 mg/kg/injection, vehicle: Klucel (hydroxypropylcellulose) (HPC)
  T/C: 73 % of control
dose: 10.0 mg/kg/injection, vehicle: Klucel (hydroxypropylcellulose) (HPC)
  T/C: 32 % of control

## Cc1c2oc3c(C)ccc(C(=O)N[C@@H]4C(=O)N[C@H](C(C)C)C(=O)N5CCC[C@H]5C(=O)N(C)CC(=O)N(C)[C@@H](C(C)C)C(=O)O[C@H]4C)c3nc-2c(C(=O)N[C@@H]2C(=O)N[C@H](C(C)C)C(=O)N3CCC[C@H]3C(=O)N(C)CC(=O)N(C)[C@@H](C(C)C)C(=O)O[C@H]2C)c(N)c1=O (I: [aThr][dV]P[Sar][NMeV] / II: [aThr][dV]P[Sar][NMeV]; ester I:1-I:C, II:1-II:C; linker I:N-II:N via Actinocin(9to1))
dose: 150.0 micrograms/kg/injection, vehicle: saline
  T/C: 122 % of control
dose: 300.0 micrograms/kg/injection, vehicle: saline
  T/C: 106 % of control

## CC(=O)Oc1ccc[nH]c1=O
[2]
  T/C: 91 % of control
[3]
  T/C: 81 % of control
[11]
  T/C: 76 % of control
[12]
  T/C: 73 % of control

## CO[C@@]12[C@H](COC(N)=O)C3=C(C(=O)C(C)=C(N)C3=O)N1C[C@@H]1N[C@@H]12
[16]
  T/C: 98 % of control
dose: 3.0 mg/kg/injection, vehicle: saline
  T/C: 40 % of control

## O=C1N(Cl)C(=O)C(c2ccc(Cl)cc2)(c2ccc(Cl)cc2)N1Cl
[3]
  T/C: 66 % of control
[10]
  T/C: 42 % of control

## NC(=O)c1ccc[n+](Cc2c(Cl)cccc2Cl)c1
dose: 24.0 mg/kg/injection, vehicle: saline
  T/C: 47 % of control
dose: 48.0 mg/kg/injection, vehicle: saline
  T/C: 68 % of control

## CC(=O)OCC(=O)[C@@]12OC(C)(C)O[C@@H]1C[C@H]1[C@@H]3CC(C=O)=C4C=C(OCCCl)CC[C@]4(C)[C@@]3(F)[C@@H](O)C[C@@]12C
[17]
  T/C: 96 % of control
[18]
  T/C: 106 % of control

## O=S(CCCl)CCCl
[18]
  T/C: 61 % of control

## O=C[C@@H](CO)O[C@H](C=O)n1cnc2c(=O)[nH]cnc21
[4]
  T/C: 92 % of control
[5]
  T/C: 73 % of control
[6]
  T/C: 62 % of control
